Legend:
[1] = tested on: HepG2; assay: Anticancer activity against human HepG2 cells assessed as viable cells after 48 hrs at 40 uM by SRB assay relative to control; type: functional; conditions: HepG2, 48 h, read-out: Activity
[2] = tested on: HepG2; assay: Anticancer activity against human HepG2 cells assessed as viable cells after 48 hrs at 5 uM by SRB assay relative to control; type: functional; conditions: HepG2, 48 h, read-out: Activity
[3] = tested on: MCF7; assay: Cytotoxicity against human MCF7 cells assessed as inhibition of cell proliferation after 24 hrs by SRB assay; type: functional, cell-based; conditions: MCF7, 24 h
[4] = tested on: HepG2; assay: Anticancer activity against human HepG2 cells assessed as viable cells after 48 hrs at 25 uM by SRB assay relative to control; type: functional; conditions: HepG2, 48 h, read-out: Activity
[5] = tested on: HepG2; assay: Anticancer activity against human HepG2 cells assessed as viable cells after 48 hrs at 12.5 uM by SRB assay relative to control; type: functional; conditions: HepG2, 48 h, read-out: Activity
[6] = tested on: HepG2; assay: Anticancer activity against 4 Gy gamma-irradiated human HepG2 cells assessed as viable cells after 48 hrs at 12.5 uM by SRB assay (reference value: 21.2%); type: functional; conditions: HepG2, light or radiation study, read-out: Activity
[7] = tested on: HepG2; assay: Anticancer activity against 4 Gy gamma-irradiated human HepG2 cells assessed as viable cells after 48 hrs at 5 uM by SRB assay (reference value: 21.2%); type: functional; conditions: HepG2, light or radiation study, read-out: Activity
[8] = tested on: HepG2; assay: Anticancer activity against 4 Gy gamma-irradiated human HepG2 cells assessed as viable cells after 48 hrs at 40 uM by SRB assay (reference value: 21.2%); type: functional; conditions: HepG2, light or radiation study, read-out: Activity
[9] = tested on: HepG2; assay: Anticancer activity against 4 Gy gamma-irradiated human HepG2 cells assessed as viable cells after 48 hrs at 25 uM by SRB assay (reference value: 21.2%); type: functional; conditions: HepG2, light or radiation study, read-out: Activity
[10] = tested on: HepG2; assay: Cytotoxicity against human HepG2 cells assessed as inhibition of cell proliferation after 24 hrs by SRB assay; type: functional, cell-based; conditions: HepG2, 24 h
[11] = tested on: MCF7; assay: Anticancer activity against human MCF7 cells assessed as viable cells after 48 hrs at 5 uM by SRB assay relative to control; type: functional; conditions: MCF7, 48 h, read-out: Activity
[12] = tested on: MCF7; assay: Anticancer activity against 4 Gy gamma-irradiated human MCF7 cells assessed as viable cells after 48 hrs at 25 uM by SRB assay (reference value: 7.3%); type: functional; conditions: MCF7, light or radiation study, read-out: Activity
[13] = tested on: MCF7; assay: Anticancer activity against human MCF7 cells assessed as viable cells after 48 hrs at 40 uM by SRB assay relative to control; type: functional; conditions: MCF7, 48 h, read-out: Activity
[14] = tested on: MCF7; assay: Anticancer activity against human MCF7 cells assessed as viable cells after 48 hrs at 12.5 uM by SRB assay relative to control; type: functional; conditions: MCF7, 48 h, read-out: Activity
[15] = tested on: MCF7; assay: Anticancer activity against 4 Gy gamma-irradiated human MCF7 cells assessed as viable cells after 48 hrs at 40 uM by SRB assay (reference value: 7.3%); type: functional; conditions: MCF7, light or radiation study, read-out: Activity
[16] = tested on: MCF7; assay: Anticancer activity against human MCF7 cells assessed as viable cells after 48 hrs at 25 uM by SRB assay relative to control; type: functional; conditions: MCF7, 48 h, read-out: Activity
[17] = tested on: MCF7; assay: Anticancer activity against 4 Gy gamma-irradiated human MCF7 cells assessed as viable cells after 48 hrs at 5 uM by SRB assay (reference value: 7.3%); type: functional; conditions: MCF7, light or radiation study, read-out: Activity
[18] = tested on: MCF7; assay: Anticancer activity against 4 Gy gamma-irradiated human MCF7 cells assessed as viable cells after 48 hrs at 12.5 uM by SRB assay (reference value: 7.3%); type: functional; conditions: MCF7, light or radiation study, read-out: Activity
[19] = tested on: HepG2; assay: Anticancer activity against 4 Gy gamma-irradiated human HepG2 cells assessed as viable cells after 48 hrs at 12.5 uM by SRB assay (reference value: 18.73%); type: functional; conditions: HepG2, light or radiation study, read-out: Activity
[20] = tested on: HepG2; assay: Anticancer activity against 4 Gy gamma-irradiated human HepG2 cells assessed as viable cells after 48 hrs at 40 uM by SRB assay (reference value: 18.73%); type: functional; conditions: HepG2, light or radiation study, read-out: Activity
[21] = tested on: HepG2; assay: Anticancer activity against 4 Gy gamma-irradiated human HepG2 cells assessed as viable cells after 48 hrs at 5 uM by SRB assay (reference value: 18.73%); type: functional; conditions: HepG2, light or radiation study, read-out: Activity
[22] = tested on: HepG2; assay: Anticancer activity against 4 Gy gamma-irradiated human HepG2 cells assessed as viable cells after 48 hrs at 25 uM by SRB assay (reference value: 18.73%); type: functional; conditions: HepG2, light or radiation study, read-out: Activity

Nc1nc(=O)[nH]c2c1c(-c1ccccc1)cn2-c1ccc(S(=O)(=O)Nc2nccs2)cc1
viability at 40 µM [1]: 63.6%
viability at 5 µM [2]: 22.3%
IC50 [3]: 8.32 µM
viability at 25 µM [4]: 63.9%
viability at 12.5 µM [5]: 47.7%
viability at 12.5 µM [6]: 69.2%
viability at 5 µM [7]: 61.7%
viability at 40 µM [8]: 81.7%
viability at 25 µM [9]: 78.3%
IC50 [10]: 3.49 µM

Nc1ncnc2c1c(-c1ccccc1)cn2-c1ccc(S(=O)(=O)Nc2nccs2)cc1
IC50 [3]: 6.45 µM
IC50 [10]: 4.24 µM

Nc1nc(=S)[nH]c2c1c(-c1ccccc1)cn2-c1ccc(S(=O)(=O)Nc2nccs2)cc1
IC50 [3]: 3.12 µM
IC50 [10]: 4.12 µM

N#Cc1c(-c2ccccc2)cn(-c2ccc(S(=O)(=O)Nc3nccs3)cc2)c1NC(=O)CCC(=O)O
viability at 40 µM [1]: 49.6%
viability at 5 µM [2]: 25%
IC50 [3]: 9.12 µM
viability at 25 µM [4]: 36%
viability at 12.5 µM [5]: 39.6%
viability at 12.5 µM [6]: 72.6%
viability at 5 µM [7]: 60.6%
viability at 40 µM [8]: 79.4%
viability at 25 µM [9]: 71.8%
IC50 [10]: 3.75 µM

N#Cc1c(-c2ccccc2)cn(-c2ccc(S(=O)(=O)Nc3ccccn3)cc2)c1N1C(=O)CCC1=O
IC50 [3]: 9.93 µM
IC50 [10]: 5.36 µM

N#Cc1c(-c2ccccc2)cn(-c2ccc(S(=O)(=O)Nc3nccs3)cc2)c1N
viability at 5 µM [11]: 11.3%
viability at 25 µM [12]: 82.3%
IC50 [3]: 3.49 µM
viability at 40 µM [13]: 72%
viability at 12.5 µM [14]: 42.5%
viability at 40 µM [15]: 85.8%
viability at 25 µM [16]: 71.3%
viability at 5 µM [17]: 41.5%
viability at 12.5 µM [18]: 65.3%
IC50 [10]: 5.36 µM

Nc1ncnc2c1c(-c1ccccc1)cn2-c1ccc(S(=O)(=O)Nc2ccccn2)cc1
IC50 [3]: 6.34 µM
IC50 [10]: 4.09 µM

COc1cccc2c1C(=O)c1c(O)c3c(c(O)c1C2=O)C[C@@](O)(C(=O)CO)C[C@@H]3O[C@H]1C[C@H](N)[C@H](O)[C@H](C)O1 [DOXORUBICIN]
IC50 [10]: 5.23 µM

O=c1[nH]cnc2c1c(-c1ccccc1)cn2-c1ccc(S(=O)(=O)Nc2nccs2)cc1
IC50 [3]: 6.21 µM
IC50 [10]: 5.3 µM

N#Cc1c(-c2ccccc2)cn(-c2ccc(S(=O)(=O)Nc3nccs3)cc2)c1N1C(=O)CCC1=O
IC50 [3]: 6.71 µM
IC50 [10]: 4.56 µM

Cc1nc2c(c(-c3ccccc3)cn2-c2ccc(S(=O)(=O)Nc3ccccn3)cc2)c(=O)[nH]1
IC50 [3]: 5.1 µM
IC50 [10]: 3.15 µM

Cc1nc2c(c(-c3ccccc3)cn2-c2ccc(S(=O)(=O)Nc3nccs3)cc2)c(=O)[nH]1
IC50 [3]: 5.8 µM
IC50 [10]: 3.39 µM

CC(=O)Nc1c(C#N)c(-c2ccccc2)cn1-c1ccc(S(=O)(=O)Nc2nccs2)cc1
IC50 [3]: 7.24 µM
IC50 [10]: 4.02 µM

N#Cc1c(-c2ccccc2)cn(-c2ccc(S(=O)(=O)Nc3nccs3)cc2)c1NC(N)=O
IC50 [3]: 8.05 µM
IC50 [10]: 4.02 µM

Nc1nc(=S)[nH]c2c1c(-c1ccccc1)cn2-c1ccc(S(=O)(=O)Nc2ccccn2)cc1
IC50 [3]: 3.8 µM
IC50 [10]: 4.1 µM

Nc1nc(=O)[nH]c2c1c(-c1ccccc1)cn2-c1ccc(S(=O)(=O)Nc2ccccn2)cc1
IC50 [3]: 3.9 µM
IC50 [10]: 4.3 µM

O=c1[nH]cnc2c1c(-c1ccccc1)cn2-c1ccc(S(=O)(=O)Nc2ccccn2)cc1
IC50 [3]: 5.32 µM
IC50 [10]: 4.67 µM

O=C(CNc1ccc(S(=O)(=O)Nc2nccs2)cc1)c1ccccc1
IC50 [3]: 8.89 µM
IC50 [10]: 6.78 µM

O=C(CNc1ccc(S(=O)(=O)Nc2ccccn2)cc1)c1ccccc1
IC50 [3]: 7.56 µM
IC50 [10]: 6.75 µM

N#Cc1c(-c2ccccc2)cn(-c2ccc(S(=O)(=O)Nc3ccccn3)cc2)c1N
IC50 [3]: 4.6 µM
IC50 [10]: 5.3 µM

N#Cc1c(-c2ccccc2)cn(-c2ccc(S(=O)(=O)Nc3ccccn3)cc2)c1NC(N)=O
IC50 [3]: 7.34 µM
IC50 [10]: 4.12 µM

CC(=O)Nc1c(C#N)c(-c2ccccc2)cn1-c1ccc(S(=O)(=O)Nc2ccccn2)cc1
viability at 40 µM [1]: 69.9%
viability at 5 µM [2]: 30.3%
IC50 [3]: 11.8 µM
viability at 25 µM [4]: 62.7%
viability at 12.5 µM [5]: 53.5%
viability at 12.5 µM [6]: 69.5%
viability at 5 µM [7]: 57.4%
viability at 40 µM [8]: 82.5%
viability at 25 µM [9]: 82.5%
IC50 [10]: 3.49 µM

N#Cc1c(-c2ccccc2)cn(-c2ccc(S(=O)(=O)Nc3ccccn3)cc2)c1NC(=O)CCC(=O)O
viability at 40 µM [1]: 78%
viability at 5 µM [2]: 15.1%
IC50 [3]: 8.32 µM
viability at 25 µM [4]: 72%
viability at 12.5 µM [19]: 84.4%
viability at 40 µM [20]: 87.7%
viability at 12.5 µM [5]: 60.3%
viability at 5 µM [21]: 81.4%
viability at 25 µM [22]: 89.2%
IC50 [10]: 3.75 µM

Source: ChEMBL document CHEMBL1268828, “Synthesis of novel pyrrole and pyrrolo[2,3-d]pyrimidine derivatives bearing sulfonamide moiety for evaluation as anticancer and radiosensitizing agents” (Bioorg Med Chem Lett, 2010)
